In article PMC11855827, “High-Throughput Screening of Five Compound Libraries for Anthelmintic Activity and Toxicity Leads to the Discovery of Two Flavonoid Compounds” (International Journal of Molecular Sciences, 2025):
“And” between values parts separate entries of the source, which are not always exact repeats. Equal entries are not always repeated. Where two headings read alike, the source gives them in different places.

Test system: C. elegans
[1] = Table S2, C. elegans SS assay, 110 μM, 0 h, averages of 4 data points
[2] = Table S2, C. elegans SS assay, 110 μM, 24 h, averages of 4 data points

SMILES	Percentage of motility inhibition 0 h [1]	Percentage of motility inhibition 24 h [2]	Percentage of motility inhibition 0 h (110 µM)	Percentage of motility inhibition 24 h (110 µM)
CC[C@]1(O)C[C@H]2CN(CCc3c([nH]c4ccccc34)[C@@](C(=O)OC)(c3cc4c(cc3OC)N(C=O)[C@H]3[C@@](O)(C(=O)OC)[C@H](OC(C)=O)[C@]5(CC)C=CCN6CC[C@]43[C@@H]65)C2)C1.O=S(=O)(O)O [Vincristine (sulfate)]	0%	0% and 7%		
COC(=O)N[C@H](C(=O)N[C@@H](Cc1ccccc1)[C@@H](O)CN(Cc1ccc(-c2ccccn2)cc1)NC(=O)[C@@H](NC(=O)OC)C(C)(C)C)C(C)(C)C.O=S(=O)(O)O [Atazanavir (sulfate)]	3%	4%		
CC1=CCC2CC1C2(C)C (stereo not drawn) [(-)-α-Pinene]	0%	6%		
COc1cc(-c2oc3cc(O)cc(O)c3c(=O)c2O[C@@H]2O[C@H](CO[C@@H]3O[C@@H](C)[C@H](O)[C@@H](O)[C@H]3O)[C@@H](O)[C@H](O)[C@H]2O[C@@H]2O[C@@H](C)[C@H](O)[C@@H](O)[C@H]2O)ccc1O [Typhaneoside]	26%	15%		
Cn1nnnc1SCC1=C(C(=O)[O-])N2C(=O)[C@@H](NC(=O)[C@H](OC=O)c3ccccc3)[C@H]2SC1.[Na+] [Cefamandole (nafate)]	0%	0%		
O.O=C(O)c1cc(O)c(O)c(O)c1 [Gallic acid (hydrate)]	6%	7%		
C[C@@H]1O[C@@H](OC[C@H]2O[C@@H](Oc3c(-c4ccc(OCCO)c(OCCO)c4)oc4cc(OCCO)cc(O)c4c3=O)[C@H](O)[C@@H](O)[C@@H]2O)[C@H](O)[C@H](O)[C@H]1O [Troxerutin]	0% and 3%	0% and 6%		
CCOC(=O)c1c(C)n(C)c2ccc(O)cc12 [Mecarbinate]	38%	36%		
NC1CCN(c2nc3c(cc2F)c(=O)c(C(=O)O)cn3-c2ccc(F)cc2F)C1 (stereo not drawn) [Tosufloxacin (tosylate hydrate)]	44%	36%		
CO/N=C(\C(=O)N[C@@H]1C(=O)N2C(C(=O)[O-])=C(COC(C)=O)CS[C@H]12)c1csc(N)n1.[Na+] [Cefotaxime (sodium salt)]	30%	34%		
Cl.N[C@@H]1CCCCN(c2c(F)cc3c(=O)c(C(=O)O)cn(C4CC4)c3c2Cl)C1 [Besifloxacin (Hydrochloride)]	6%	32%		
NC(=O)c1cccnc1 [Nicotinamide]		0% and 10%		
CC(=O)O.Cc1cc2c(C(C)C)c(O)c(O)c(C=O)c2c(O)c1-c1c(C)cc2c(C(C)C)c(O)c(O)c(C=O)c2c1O [Gossypol (acetic acid)]	0%	7%		
NCC(=O)O [Glycine]			32%	13%
COC(=O)[C@H]1[C@H]2C[C@H]3c4[nH]c5ccccc5c4CCN3C[C@H]2CC[C@@H]1O.Cl [Rauwolscine (hydrochloride)]	7%	0%		
CC(N)C12CC3CC(CC(C3)C1)C2.Cl (stereo not drawn) [Rimantadine (hydrochloride)]	45%	25%		
Clc1ccc(COC(Cn2ccnc2)c2ccc(Cl)cc2Cl)cc1.O=[N+]([O-])O (stereo not drawn) [Econazole (nitrate)]	35%	13%		
